The target in assay [1] is T1, Human CB1 receptor (Homo sapiens, UniProt P21554).
T1 construct: purchased Receptor Biology
Briefly: hCB1 receptor binding (3H-CP55,940 displacement). Conditions: human CB1 membranes, Ki=IC50/(1+[rad]/Kd). On the procedure: Human CB1 receptor from Receptor Biology (hCB1) or human CB2 receptor from BioSignal (hCB2) membranes are thawed at 37° C., passed 3 times through a 25-gauge blunt-end needle, diluted in the cannabinoid binding buffer (50 mM Tris, 2.5 mM EDTA, 5 mM MgCl2, and 0.5 mg/mL BSA fatty acid free, pH 7.4) and aliquots containing the appropriate amount of protein are distributed in 96-well plates. The IC50 of the compounds of the invention at hCB1 and hCB2 are evaluated from 10-point dose-response curves done with ^3H-CP55,940 at 20000 to 25000 dpm per well (0.17-0.21 nM) in a final volume of 300 μl. The total and non-specific binding are determined in the absence and presence of 0.2 μM of HU210 respectively. The plates are vortexed and incubated for 60 minutes at room temperature, filtered through Unifilters GF/B (presoaked in 0.1% polyethyleneimine) with the Tomtec or Packard harvester using 3 mL of wash buffer (50 mM Tris, 5 mM MgCl2, 0.5 mg BSA pH 7.0). The filters are dried for 1 hour at 55° C. The radioactivity (cpm) is counted in a TopCount (Packard) after adding 65 μl/well of MS-20 scintillation liquid.
Based on the above assays, the dissociation constant (Ki) for a particular compound of the invention towards a particular receptor is determined using the following equation: Ki=IC50/(1+[rad]/Kd),
Wherein IC50 is the concentration of the compound of the invention at which 50% displacement has been observed;
[rad] is a standard or reference radioactive ligand concentration at that moment; and
Kd is the dissociation constant of the radioactive ligand towards the particular receptor.

The target of assay [2] is T1, Human CB1 receptor. Briefly: hCB1 GTPγS binding. The format is biochemical. Particulars: human CB1 membranes, GTPg35S binding; for Emax: maximal stimulated binding with 10 μM Win 55,212-2; for EC50: read-out: EC5O (hCB1). On the procedure:
Human CB1 receptor from Receptor Biology (hCB1) or human CB2 receptor membranes (BioSignal) are thawed at 37° C., passed 3 times through a 25-gauge blunt-end needle and diluted in the GTPγS binding buffer (50 mM Hepes, 20 mM NaOH, 100 mM NaCl, 1 mM EDTA, 5 mM MgCl2, pH 7.4, 0.1% BSA). The EC50 and Emax of the compounds of the invention are evaluated from 10-point dose-response curves done in 300 μl with the appropriate amount of membrane protein and 100000-130000 dpm of GTPg^35S per well (0.11-0.14 nM). The basal and maximal stimulated binding is determined in absence and presence of 1 μM (hCB2) or 10 μM (hCB1) Win 55,212-2 respectively. The membranes are pre-incubated for 5 minutes with 56.25 μM (hCB2) or […] (hCB1) GDP prior to distribution in plates (15 μM (hCB2) or 30 μM (hCB1) GDP final). The plates are vortexed and incubated for 60 minutes at room temperature, filtered on Unifilters GF/B (presoaked in water) with the Tomtec or Packard harvester using 3 ml of wash buffer (50 mM Tris, 5 mM MgCl2, 50 mM NaCl, pH 7.0). The filters are dried for 1 hour at 55° C. The radioactivity (cpm) is counted in a TopCount (Packard) after adding 65 μl/well of MS-20 scintillation liquid. Antagonist reversal studies are done in the same way except that (a) an agonist dose-response curve is done in the presence of a constant concentration of antagonist, or (b) an antagonist dose-response curve is done in the presence of a constant concentration of agonist.

Molecules are shown by their SMILES.

T1 sequence (P21554 whole entry): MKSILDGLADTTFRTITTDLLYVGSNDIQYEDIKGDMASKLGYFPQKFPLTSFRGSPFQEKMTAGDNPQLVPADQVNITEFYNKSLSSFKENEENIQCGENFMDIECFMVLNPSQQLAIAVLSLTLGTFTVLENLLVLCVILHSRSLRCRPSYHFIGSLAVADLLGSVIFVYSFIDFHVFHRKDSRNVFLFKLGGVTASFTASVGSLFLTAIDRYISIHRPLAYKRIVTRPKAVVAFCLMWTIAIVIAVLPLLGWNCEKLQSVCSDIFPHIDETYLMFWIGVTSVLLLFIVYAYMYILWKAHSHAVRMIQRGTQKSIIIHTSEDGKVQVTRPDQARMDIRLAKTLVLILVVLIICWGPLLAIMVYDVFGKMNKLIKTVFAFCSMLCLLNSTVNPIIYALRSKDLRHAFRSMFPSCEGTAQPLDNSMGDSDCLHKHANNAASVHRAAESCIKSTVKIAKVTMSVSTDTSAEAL

For the molecule `O=C(NCC1CCCC1)c1ncccc1NC(=O)c1cccc2ccccc12` [Example 13, N-(Cyclopentylmethyl)-3-[(1-naphthalenylcarbonyl)amino]-2-pyridinecarboxamide], on Human CB1 receptor [1], the inhibition constant Ki (in general, a dissociation constant, usually derived from enzyme kinetics or from competition with a known ligand) was determined as 12 nM. Besides, at Human CB1 receptor [2], the Emax (as a rule, the greatest response seen or fitted, relative to the assay's reference) came to 105% and the EC50 is 46 nM.
In the same order, the values of `O=C(NCC1CCCCC1)c1ncccc1NC(=O)c1ccc(N2CCC2)c2ccccc12` [Example 171, 3-[(4-Azetidin-1-yl-1-naphthoyl)amino]-N-(cyclohexylmethyl)pyridine-2-carboxamide] are 57 nM, 71% and 217 nM.
`O=C(NCC1CCOCC1)c1nccnc1NC(=O)c1cccc2ccccc12` [Example 43, 3-(1-Naphthoylamino)-N-(tetrahydro-2H-pyran-4-ylmethyl)pyrazine-2-carboxamide] registered a Ki at Human CB1 receptor [1] of 181 nM. Further, on Human CB1 receptor [2], the Emax was 112% and the EC50 was 907 nM.
Taken in the same sequence, the figures for `Cc1ccc(C(=O)Nc2cccnc2C(=O)NCc2ccccn2)c2ccccc12` [Example 80, 3-(4-Methyl 1-naphthoylamino)-N-(pyridin-2-ylmethyl)pyridine-2-carboxamide] were 221 nM, 75% and 1230 nM.

These data come from US20070225292A1, “Therapeutic Compounds: Pyridine as Scaffold” (priority 2004, published 2007).
